Measured values: patent US20250145633A1, “SUBSTITUTED FURANOPYRIMIDINE COMPOUNDS AS PDE1 INHIBITORS” (Dart NeuroScience, LLC, priority 2017, published 2025)

These compounds were tested against human PDE1B enzyme (Homo sapiens (Human), UniProt Q01064) (assay: IMAP TR-FRET PDE1B enzymatic assay). Conditions: negative log of half-maximal molar inhibitory concentration; 200 nM FAM-cAMP; values given as bins.
Format: biochemical
Method in brief: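 Full-length GST-tagged human PDE1B (250 pg/well) in IMAP BSA buffer with 10 U/ml calmodulin and 2.5 mM CaCl2; compound pre-incubated 5 min at room temperature, then 200 nM (final) FAM-cAMP for 30 min. IMAP binding reagent/Tb added, 1 h; TR-FRET 520/490 ratio read. IC50 from sigmoidal dose-response fit.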
For `Cc1oc2ncnc(NC3(C)CC3)c2c1C(=O)N1CCC(O)(c2ccc(F)cc2)CC1` [Example 63, 4-(4-Fluorophenyl)-1-{6-methyl-4-[(1-methylcyclopropyl)amino]furo[2,3-d]pyrimidine-5-carbonyl}piperidin-4-ol], the “PDE1b (pIC50)” value was >8. In the case of `Cc1oc2ncnc(NC3(C)CC3)c2c1C(=O)N1CCC2(C=Cc3ccccc32)CC1` [Example 387, 6-Methyl-N-(1-methylcyclopropyl)-5-({spiro[indene-1,4′-piperidine]-1′-yl}carbonyl)furo[2,3-d]pyrimidin-4-amine], the “PDE1b (pIC50)” value is reported as >8. `Cc1oc2ncnc(NC3(C)CC3)c2c1C(=O)N1CCc2c(cccc2OCF)C1` [Example 764, 5-[5-(Fluoromethoxy)-1,2,3,4-tetrahydroisoquinoline-2-carbonyl]-6-methyl-N-(1-methylcyclopropyl)furo[2,3-d]pyrimidin-4-amine] was tested, and the “PDE1b (pIC50)” value was >8. With `Cc1oc2ncnc(NC3(C)CC3)c2c1C(=O)N1CCC(O)(c2ccc(F)cc2)C1` (stereo not drawn) [Example 67, 3-(4-Fluorophenyl)-1-{6-methyl-4-[(1-methylcyclopropyl)amino]furo[2,3-d]pyrimidine-5-carbonyl}pyrrolidin-3-ol] the “PDE1b (pIC50)” value was >8. For `Cc1oc2ncnc(NC3(C)CC3)c2c1C(=O)N1CCC(c2cccc(F)n2)C1` (stereo not drawn) [Example 532, 5-[3-(6-Fluoropyridin-2-yl)pyrrolidine-1-carbonyl]-6-methyl-N-(1-methylcyclopropyl)furo[2,3-d]pyrimidin-4-amine], the “PDE1b (pIC50)” value was >8. For `Cc1cc(F)nc(C2CCN(C(=O)c3c(C)oc4ncnc(NC5(C)CC5)c34)C2)c1` (stereo not drawn) [Example 798, 5-[3-(6-Fluoro-4-methylpyridin-2-yl)pyrrolidine-1-carbonyl]-6-methyl-N-(1-methylcyclopropyl)furo[2,3-d]pyrimidin-4-amine], the “PDE1b (pIC50)” value was >8. `Cc1oc2ncnc(NC3(C)CC3)c2c1C(=O)N1CCC(c2cccc(F)c2)C1` (stereo not drawn) [Example 389, 5-[3-(3-Fluorophenyl)pyrrolidine-1-carbonyl]-6-methyl-N-(1-methylcyclopropyl)furo[2,3-d]pyrimidin-4-amine] was tested, and the “PDE1b (pIC50)” value was >8. With `Cc1oc2ncnc(NC3(C)CC3)c2c1C(=O)NCc1ccc(OC(F)F)cc1` [Example 267, N-{[4-(Difluoromethoxy)phenyl]methyl}-6-methyl-4-[(1-methylcyclopropyl)amino]furo[2,3-d]pyrimidine-5-carboxamide] the “PDE1b (pIC50)” value was >8. For `Cc1oc2ncnc(NC3(C)CC3)c2c1C(=O)NCc1noc(C2CC2)n1` [Example 464, N-[(5-Cyclopropyl-1,2,4-oxadiazol-3-yl)methyl]-6-methyl-4-[(1-methylcyclopropyl)amino]furo[2,3-d]pyrimidine-5-carboxamide], the “PDE1b (pIC50)” value was >8. In the case of `COC1(c2ccccc2)CN(C(=O)c2c(C)oc3ncnc(NC4(C)CC4)c23)C1` [Example 103, 5-(3-Methoxy-3-phenylazetidine-1-carbonyl)-6-methyl-N-(1-methylcyclopropyl)furo[2,3-d]pyrimidin-4-amine], the “PDE1b (pIC50)” value is reported as >8. In the case of `Cc1oc2ncnc(NC3(C)CC3)c2c1C(=O)N1CCC(c2ccc(F)cc2)CC1` [Example 60, 5-[4-(4-Fluorophenyl)piperidine-1-carbonyl]-6-methyl-N-(1-methylcyclopropyl)furo[2,3-d]pyrimidin-4-amine], the “PDE1b (pIC50)” value is reported as >8. For `COc1ncc(C2CCN(C(=O)c3c(C)oc4ncnc(NC5(C)CC5)c34)CC2)cc1F` [Example 14, 5-[4-(5-Fluoro-6-methoxypyridin-3-yl)piperidine-1-carbonyl]-6-methyl-N-(1-methylcyclopropyl)furo[2,3-d]pyrimidin-4-amine], the “PDE1b (pIC50)” value was >8.

Same assay, conditions: negative log of half-maximal molar inhibitory concentration; 200 nM FAM-cAMP; values given as bins; read-out: PDE1b (pIC50) (converted)
`Cc1oc2ncnc(NC3(C)CC3)c2c1C(=O)NCc1cn(C)cn1` [Example 116, 6-Methyl-N-[(1-methyl-1H-imidazol-4-yl)methyl]-4-[(1-methylcyclopropyl)amino]furo[2,3-d]pyrimidine-5-carboxamide] showed an IC50 of 10 to 100 nM. In the case of `Cc1oc2ncnc(NC3(C)CC3)c2c1C(N)=O` [Example 761, 6-Methyl-4-[(1-methylcyclopropyl)amino]furo[2,3-d]pyrimidin-5-carboxamide], the IC50 is reported as 100 to 1000 nM. With `Cc1oc2ncnc(NC3(C)CC3)c2c1C(=O)N1Cc2nc(C3CC3)[nH]c(=O)c2C1` [Example 681, 2-Cyclopropyl-6-{6-methyl-4-[(1-methylcyclopropyl)amino]furo[2,3-d]pyrimidine-5-carbonyl}-3H,4H,5H,6H,7H-pyrrolo[3,4-d]pyrimidin-4-one] the IC50 was 100 to 1000 nM. With `Cc1oc2ncnc(NC3(C)CC3)c2c1C(=O)N1CCOCC1` [Example 117, 6-Methyl-N-(1-methylcyclopropyl)-5-(morpholine-4-carbonyl)furo[2,3-d]pyrimidin-4-amine] the IC50 was 100 to 1000 nM. For `COc1cccc(-c2cnn(C(=O)c3c(C)oc4ncnc(NC5(C)CC5)c34)c2)c1` [Example 412, 5-[4-(3-Methoxyphenyl)-1H-pyrazole-1-carbonyl]-6-methyl-N-(1-methylcyclopropyl)furo[2,3-d]pyrimidin-4-amine], the IC50 was 10 to 100 nM. In the case of `Cc1oc2ncnc(NC3(C)CC3)c2c1C(=O)N1CCC2(C1)C(=O)Nc1ccccc12` (stereo not drawn) [Example 392, 1′-{6-Methyl-4-[(1-methylcyclopropyl)amino]furo[2,3-d]pyrimidine-5-carbonyl}-1,2-dihydrospiro[indole-3,3′-pyrrolidine]-2-one], the IC50 is reported as 10 to 100 nM. `Cc1oc2ncnc(NC3(C)CC3)c2c1C(=O)NCc1nccs1` [Example 73, 6-Methyl-4-[(1-methylcyclopropyl)amino]-N-(1,3-thiazol-2-ylmethyl)furo[2,3-d]pyrimidine-5-carboxamide] was tested, and the IC50 was 10 to 100 nM. In the case of `Cc1oc2ncnc(NC3(C)CC3)c2c1C(=O)NCc1cnc(Cl)nc1` [Example 313, N-[(2-Chloropyrimidin-5-yl)methyl]-6-methyl-4-[(1-methylcyclopropyl)amino]furo[2,3-d]pyrimidine-5-carboxamide], the IC50 is reported as 10 to 100 nM. `Cc1ccc(C2CCN(C(=O)c3c(C)oc4ncnc(NC5(C)CC5)c34)CC2)cn1` [Example 383, 6-Methyl-N-(1-methylcyclopropyl)-5-[4-(6-methylpyridin-3-yl)piperidine-1-carbonyl]furo[2,3-d]pyrimidin-4-amine] gave an IC50 of 10 to 100 nM. For `Cc1oc2ncnc(NC3(C)CC3)c2c1C(=O)NCCc1cnc(C2CC2)nc1` [Example 693, N-[2-(2-Cyclopropylpyrimidin-5-yl)ethyl]-6-methyl-4-[(1-methylcyclopropyl)amino]furo[2,3-d]pyrimidine-5-carboxamide], the IC50 was 100 to 1000 nM. `Cc1nn(C(=O)c2c(C)oc3ncnc(NC4(C)CC4)c23)c(C)c1CN1CCOCC1` [Example 415, 5-[3,5-Dimethyl-4-(morpholin-4-ylmethyl)-1H-pyrazole-1-carbonyl]-6-methyl-N-(1-methylcyclopropyl)furo[2,3-d]pyrimidin-4-amine] showed an IC50 of 10 to 100 nM. Compound `Cc1oc2ncnc(NC3(C)CC3)c2c1C(=O)NC(CO)c1ccc(F)cc1` (stereo not drawn) [Example 513, N-[1-(4-Fluorophenyl)-2-hydroxyethyl]-6-methyl-4-[(1-methylcyclopropyl)amino]furo[2,3-d]pyrimidine-5-carboxamide] has an IC50 of 10 to 100 nM. Compound `COc1ncnc2c1CN(C(=O)c1c(C)oc3ncnc(NC4(C)CC4)c13)CC2` [Example 663, 5-{4-Methoxy-5H,6H,7H,8H-pyrido[4,3-d]pyrimidine-6-carbonyl}-6-methyl-N-(1-methylcyclopropyl)furo[2,3-d]pyrimidin-4-amine] has an IC50 of 100 to 1000 nM. In the case of `Cc1oc2ncnc(NC3(C)CC3)c2c1C(=O)NCCN1CCOCC1` [Example 96, 6-Methyl-4-[(1-methylcyclopropyl)amino]-N-[2-(morpholin-4-yl)ethyl]furo[2,3-d]pyrimidine-5-carboxamide], the IC50 is reported as 10 to 100 nM. `Cc1ccc(CNC(=O)c2c(C)oc3ncnc(NC4(C)CC4)c23)nn1` [Example 718, 6-Methyl-4-[(1-methylcyclopropyl)amino]-N-[(6-methylpyridazin-3-yl)methyl]furo[2,3-d]pyrimidine-5-carboxamide] was tested, and the IC50 was 10 to 100 nM. For `Cc1oc2ncnc(NC3(C)CC3)c2c1C(=O)NCc1cnn(C)n1` [Example 740, 6-Methyl-N-[(2-methyl-2H-1,2,3-triazol-4-yl)methyl]-4-[(1-methylcyclopropyl)amino]furo[2,3-d]pyrimidine-5-carboxamide], the IC50 was 10 to 100 nM. For `Cc1oc2ncnc(NC3(C)CC3)c2c1C(=O)NC1(c2ccc(F)cn2)CC1` [Example 281, N-[1-(5-Fluoropyridin-2-yl)cyclopropyl]-6-methyl-4-[(1-methylcyclopropyl)amino]furo[2,3-d]pyrimidine-5-carboxamide], the IC50 was 10 to 100 nM. Work on `COc1ccc(CNC(=O)c2c(C)oc3ncnc(NC4(C)CC4)c23)nn1` [Example 711, N-[(6-Methoxypyridazin-3-yl)methyl]-6-methyl-4-[(1-methylcyclopropyl)amino]furo[2,3-d]pyrimidine-5-carboxamide] yielded an IC50 of 10 to 100 nM. `Cc1csc(CNC(=O)c2c(C)oc3ncnc(NC4(C)CC4)c23)n1` [Example 703, 6-Methyl-N-[(4-methyl-1,3-thiazol-2-yl)methyl]-4-[(1-methylcyclopropyl)amino]furo[2,3-d]pyrimidine-5-carboxamide] showed an IC50 of 10 to 100 nM. `COc1ccc(C(C)NC(=O)c2c(C)oc3ncnc(NC4(C)CC4)c23)cc1` (stereo in doubt) [Example 480, N-[(1S)-1-(4-Methoxyphenyl)ethyl]-6-methyl-4-[(1-methylcyclopropyl)amino]furo[2,3-d]pyrimidine-5-carboxamide] showed an IC50 of 10 to 100 nM. In the case of `Cc1oc2ncnc(NC3(C)CC3)c2c1C(=O)NCc1noc(C(F)(F)Cl)n1` [Example 626, N-{[5-(Chlorodifluoromethyl)-1,2,4-oxadiazol-3-yl]methyl}-6-methyl-4-[(1-methylcyclopropyl)amino]furo[2,3-d]pyrimidine-5-carboxamide], the IC50 is reported as 10 to 100 nM.
